We go through five molecules from article PMC8831520, “Small molecule SWELL1 complex induction improves glycemic control and nonalcoholic fatty liver disease in murine Type 2 diabetes” (Nature Communications, 2022).

In one experiment the test system is T2D and non-T2D mice. The experiment can be described thus: Metabolic phenotyping: fasting glucose, GTT, ITT. The settings on record: compared to Inactive 1. On the procedure:
All compounds were dissolved in Kolliphor® EL (Sigma, #C5135).
(§1) Mice were fasted for 6 h prior to glucose tolerance tests (GTT). Baseline glucose levels at 0 min timepoint (fasting glucose, FG) were measured from a blood sample collected from tail snipping using glucometer (Bayer Healthcare LLC). Either 1 or 0.75 g D-Glucose/kg body weight were injected (i.p.) for lean or HFD mice, respectively and glucose levels were measured at 5 or 7, 15, 30, 60, 90, and 120 min timepoints after injection. For insulin tolerance tests (ITTs), the mice were fasted for 4 h. Similar to GTTs, the baseline blood glucose levels were measured at 0 min timepoint and 15, 30, 60, 90, and 120 min timepoints post-injection (i.p.) of insulin (HumulinR, 1 U/kg bodyweight for lean mice or 1.25 U/kg body weight for HFD mice). […] The collected plasma was then measured for insulin content by using Ultra-Sensitive Mouse Insulin ELISA Kit (Crystal Chem, #90080). All mouse studies were performed in a blinded fashion.

Experiment [1] addresses T1, ICl,SWELL (SWELL1-LRRC8 channel) in HEK-293 cells (Homo sapiens, UniProt Q8IWT6).
T1 construct: applied when the endogenous HEK-293 cell ICl,SWELL current density reached 30 pA/pF; endogenous in cells; host or cells: HEK-293 (ATCC, #CRL-1573)
T1 sequence (Q8IWT6 1-810): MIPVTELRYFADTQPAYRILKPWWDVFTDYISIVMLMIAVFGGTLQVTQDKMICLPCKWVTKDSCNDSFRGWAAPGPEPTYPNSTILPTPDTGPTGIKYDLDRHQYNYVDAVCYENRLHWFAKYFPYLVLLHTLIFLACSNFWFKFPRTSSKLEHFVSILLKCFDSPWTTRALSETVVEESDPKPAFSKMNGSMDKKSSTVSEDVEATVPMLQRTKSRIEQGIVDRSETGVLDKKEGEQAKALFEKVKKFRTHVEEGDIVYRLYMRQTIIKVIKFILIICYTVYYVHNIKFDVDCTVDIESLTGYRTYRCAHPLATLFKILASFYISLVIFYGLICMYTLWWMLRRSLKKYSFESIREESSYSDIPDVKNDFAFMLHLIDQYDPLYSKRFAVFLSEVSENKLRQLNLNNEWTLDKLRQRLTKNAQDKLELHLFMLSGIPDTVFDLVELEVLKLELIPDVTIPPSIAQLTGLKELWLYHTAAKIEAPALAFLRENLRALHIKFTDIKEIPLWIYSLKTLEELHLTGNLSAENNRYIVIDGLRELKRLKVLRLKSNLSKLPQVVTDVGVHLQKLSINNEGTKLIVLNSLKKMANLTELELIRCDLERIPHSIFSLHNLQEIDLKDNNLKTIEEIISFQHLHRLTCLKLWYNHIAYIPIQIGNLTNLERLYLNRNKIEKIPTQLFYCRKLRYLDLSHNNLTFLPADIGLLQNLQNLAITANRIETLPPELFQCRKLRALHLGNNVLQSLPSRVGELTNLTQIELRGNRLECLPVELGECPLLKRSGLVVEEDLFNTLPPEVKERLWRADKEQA
The experiment can be described thus: ICl,SWELL inhibition after hypotonic activation (open channel), patch-clamp. It counts as cell-based. The settings on record: HEK-293 cells; for IC50: hypotonic (210 mOsm) stimulation, outward current, compound applied at 30 pA/pF, read-out: IC50 for ICl,SWELL inhibition. On the procedure:
Patch-clamp recordings of β-cells, 3T3-F442A adipocytes, and mature human adipocytes were performed as described previously[24],[28]. Briefly, all patch-clamp experiments were conducted at room temperature using either an Axopatch 200B amplifier or a MultiClamp 700B amplifier paired to a Digidata 1550 digitizer. Data were acquired using pClamp 10.4 software. For hypotonic swelling, extracellular solution consisted of the following (in mM): 90 NaCl, 2 CsCl, 1 MgCl2, 1 CaCl2, 10 HEPES, 10 mannitol, pH 7.4 with NaOH (210 mOsm/kg). The isotonic extracellular solution consisted of the same composition above but with 110 mM instead of 10 mM mannitol (300 mOsm/kg). The swell-activated current was elicited by perfusing cells with a hypotonic solution (210 mOsm/kg). […] For perforated-patch recordings in isolated human adipocytes, the intracellular solution was as above but without ATP and GTP, and contained 360 μg/ml Amphotericin B (Sigma). The holding potential was 0 mV. Voltage ramps from −100 to +100 mV (at 0.4 mV/ms) were applied every 4 s. The sampling interval was 100 μs and filtered at 10 kHz. For perforated-patch recordings, cells with a membrane resistance below 1 GΩ or access resistance above 20 MΩ were discarded. […]

Experiment [2] has as its system pancreatic islets of T2D mice. Briefly: Insulin secretion of treated T2D mice (serum insulin, islet perifusion GSIS). The class given is in vivo, mouse. The settings on record: islets of T2D KKAy mice, compared to Inactive 1. On the procedure:
as §1

Experiment [3] has as its target T2, R103E-SWELL1 expressing HEK-293 cells (R103E O/E) (Homo sapiens, UniProt Q8IWT6, R103E).
T2 construct: P2A:EGFP (C); host or cells: HEK-293, Lipofectamine 2000, co-transfected with CMV-Cre; EGFP+ cells recorded
The experiment can be described thus: ICl,SWELL inhibition in SWELL1-R103E overexpressing cells, patch-clamp. It counts as cell-based. The settings on record: R103E-SWELL1 overexpressing HEK-293 cells, compound applied at maximum current density; read-out: IC50 for ICl,SWELL inhibition, R103E O/E. The source says:
See also Fig. 6 for a schematic representation. […] For SWELL1-R103E overexpression experiments, HEK-293 cells were transfected with either control Cre plasmid (CMV-Cre, McDonnell Genome Institute in Washington University in St. Louis) or Cre plus R103E-GFP (CAG-LoxP-stop-LoxP-SWELL1-R103E/3XFlag:P2A:EGFP, Vector Biolabs) plasmid using Lipofectamine 2000 as per the manufacturer’s protocol. SWELL1-R103E expressing HEK-293 cells were identified by EGFP + fluorescence.
(The patch-clamp technique gives a direct electrical read-out from membranes.)

Experiment [4] concerns the target Mus musculus SWELL1 (LRRC8a, leucine-rich repeat-containing protein 8a) (Mus musculus). Briefly: cryo-EM structure; SWELL1 in MSP1E3D1 lipid nanodiscs (2:1:1 DOPE:POPC:POPS), 1 mg/mL SWELL1-MSP1E3D1 with 100 µM SN-407; 20 mM HEPES, 150 mM KCl, pH 7.4; C6 refinement, then symmetry expansion and relaxation.
Experiment [5] relates to T3, SWELL1 protein in 3T3-F442A adipocytes.
T3 construct: host or cells: 3T3-F442A preadipocytes and differentiated adipocytes (wild type)
Briefly: SWELL1 protein under glucolipotoxic stress (palmitate + glucose). It counts as cell-based, murine. To be noted: 10 µM 96 h pretreatment, then 1 mM palmitate + 25 mM glucose 16 h. On the procedure: (§2) In the case of 3T3-F442A adipocytes, the WT and KO cells were treated with either vehicle (DMSO), 1 or 10 µM SN-40X (after 7–11 days of differentiation) for 96 h and then stimulated with 0 and 10 nM insulin/serum-containing media with vehicle (DMSO) or SN-40X for 15 min for SWELL1 detection. […] To simulate glucolipotoxicity, 8 mM sodium palmitate was dissolved in 18.4% fatty-acid free BSA at 37 °C in DMEM medium with 25 mM glucose to obtain a conjugation ratio of 1:3 palmitate:BSA[80].

Experiment [6] shares this test system. Briefly: SWELL1 protein western blot in adipocytes. The class given is cell-based, murine. The settings on record: 10 and 1 μM, 4 days, then 6 h serum starving. Here is the method: as §2
Adipocytes were washed twice in ice-cold phosphate buffer saline and lysed in RIPA buffer (150 mM NaCl, 20 mM HEPES, 1% NP-40, 5 mM EDTA, pH 7.4) with proteinase/phosphatase inhibitors (Roche). The cell lysate was further sonicated in 10 s cycle intervals 2–3 times and centrifuged at 18,407×g for 30 min at 4 °C and repeated one more time to remove the excess fat. The supernatant was collected and further estimated for protein concentration using a DC protein assay kit (Bio-Rad). Fat and liver tissues were homogenized and suspended in RIPA buffer with inhibitors and further processed in a similar fashion as described above. HUVECs were also prepared in a similar fashion except the lysates were spun only once to remove the cells debris to obtain the clear supernatant. For islets, either human or mouse islets were washed twice with phosphate buffer saline (PBS) and lysed using RIPA buffer containing protease and phosphatase inhibitors. The lysate was further clarified by freezing in liquid nitrogen for about 10 s for three cycles. The supernatant was collected from the whole lysate centrifuged at 16,260×g for 20 min at 4 °C. […] For soleus muscle, the tissue was homogenized in a Bullet Blender homogenizer (Speed-9, Time-3 mins) in 8 volumes of ice-cold muscle homogenization buffer (50 mM Tris, 25 mM NaCl, 0.2% Nonidet P-40, 5 mM EGTA, 2.5 mM EDTA, 20 mM NaF, 20 mM Na4P2O7·10H2O, 2 mM Na3VO4, pH 7.4) supplemented with protease/phosphatase inhibitor (Roche). The homogenized lysate was centrifuged two times at 18,500×g for 20 min at 4 °C and supernatant was collected for protein estimation. Protein samples were further prepared by boiling in 2X or 4X Laemmli buffer. Approximately 10–60 µg of total protein was loaded in 4–15% gradient gel (Bio-Rad) for separation and protein transfer was carried out onto the PVDF membranes (Bio-Rad). Membranes were blocked in 5% BSA (or 5% milk for SWELL1) in TBST buffer (0.2 M Tris, 1.37 M NaCl, 0.2% Tween-20, pH 7.4) for 1 h and incubated with appropriate primary antibodies (5% BSA or milk) overnight at 4 °C. […] The images were further analyzed for band intensities using ImageJ software. […]
(In general: Immunoblotting shows a protein as a band on a membrane.)

Setting [7] is: 8 weeks HFD mice, 5 mg/kg/day × 4 days.

By stoichiometry N is commonly meant the number of molecules, sites or subunits per partner or assembly.

T2 sequence (Q8IWT6 whole entry R103E): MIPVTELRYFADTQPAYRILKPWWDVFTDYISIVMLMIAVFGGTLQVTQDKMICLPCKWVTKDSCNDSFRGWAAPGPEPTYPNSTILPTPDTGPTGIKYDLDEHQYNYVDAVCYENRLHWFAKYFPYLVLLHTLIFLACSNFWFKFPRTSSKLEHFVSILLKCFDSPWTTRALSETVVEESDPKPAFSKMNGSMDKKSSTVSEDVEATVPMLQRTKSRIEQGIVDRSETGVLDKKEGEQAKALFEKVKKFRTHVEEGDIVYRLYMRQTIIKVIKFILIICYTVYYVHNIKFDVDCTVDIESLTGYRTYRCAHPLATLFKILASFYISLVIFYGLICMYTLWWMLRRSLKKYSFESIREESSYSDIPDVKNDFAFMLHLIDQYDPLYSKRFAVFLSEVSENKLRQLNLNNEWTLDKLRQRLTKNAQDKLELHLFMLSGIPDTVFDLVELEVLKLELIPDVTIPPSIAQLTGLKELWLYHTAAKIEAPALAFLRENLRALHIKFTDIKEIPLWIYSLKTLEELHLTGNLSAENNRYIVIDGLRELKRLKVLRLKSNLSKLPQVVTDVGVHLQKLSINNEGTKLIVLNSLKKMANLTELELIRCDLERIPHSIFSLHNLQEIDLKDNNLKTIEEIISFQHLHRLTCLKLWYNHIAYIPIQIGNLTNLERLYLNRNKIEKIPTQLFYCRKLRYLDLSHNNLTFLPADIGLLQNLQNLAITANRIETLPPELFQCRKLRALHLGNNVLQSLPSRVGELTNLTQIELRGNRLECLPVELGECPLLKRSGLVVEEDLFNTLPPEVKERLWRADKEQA

With `CCCCC1(C2CCCC2)Cc2cc(OCCCCCCC(=O)O)c(Cl)c(Cl)c2C1=O` (stereo not shown) [SN-407, 7-((2-butyl-6,7-dichloro-2-cyclopentyl-1-oxo-2,3-dihydro-1H-inden-5-yl)oxy)heptanoic acid], the “glucose tolerance (GTT AUC)” value with T2D and non-T2D mice (T2D KKAy mice, 5 mg/kg i.p. 4 days) was “improved”. Also, in experiment [1], the “ICl,SWELL inhibitory activity compared to SN-401” value is recorded as “increased ICl,SWELL inhibitory activity” and the IC50 is 1.6 µM. In experiment [2], the GSIS result was “increased”. In experiment [3], the IC50 was found to be 4.2 µM.
On to “Mus musculus SWELL1 (LRRC8a, leucine-rich repeat-containing protein 8a) (natural protein)”, for which the stoichiometry N in experiment [4] was determined as 6.
`CCCCC1(C2CCCC2)Cc2cc(OCCCB(O)O)c(Cl)c(Cl)c2C1=O` (stereo not shown) [Inactive 3, (3-((2-butyl-6,7-dichloro-2-cyclopentyl-1-oxo-2,3-dihydro-1H-inden-5-yl)oxy)propyl)boronic acid]: the IC50 in experiment [1] was 18.3 µM.
As for `O=C(O)CCCOc1cc2c(c(Cl)c1Cl)C(=O)C(C1CCCC1)C2` (stereo not shown) [Inactive 2, 4-((6,7-dichloro-2-cyclopentyl-1-oxo-2,3-dihydro-1H-inden-5-yl)oxy)butanoic acid], the IC50 in experiment [1] stood at 10.6 µM. Further, the “prevention of palmitate/glucose-induced reduction of SWELL1 protein” value in experiment [5] is recorded as “not”. Also, in experiment [6], the “SWELL1 protein level relative to vehicle-treated controls” value is recorded as “did not significantly increase”.
With `CCCCC1(C2CCCC2)Cc2cc(OCCCCC(=O)O)c(Cl)c(Cl)c2C1=O` (stereo not shown) [SN-403, 5-((2-butyl-6,7-dichloro-2-cyclopentyl-1-oxo-2,3-dihydro-1H-inden-5-yl)oxy)pentanoic acid], in the experiment with T2D and non-T2D mice (setting [7]), the fasting blood glucose result was “significantly reduced” and the glucose tolerance entry is listed as “improved”. The “ICl,SWELL inhibitory activity compared to SN-401” value in experiment [1] is listed as “increased ICl,SWELL inhibitory activity”.
